# In patent US7034035B2, “Fungicidal mono-, bi-, and tri-cycloheteroalkyl amides and their compositions, methods of use and preparation” (priority 1999, dated 2006):
# How the values were obtained:
# [1] = tested on: Rhizoctonia solani (RHIZSO); experiment: microbe, parasite or virus in culture; assay type: cell-based
# [2] = tested on: Ustilago maydis (USTIMA); experiment: microbe, parasite or virus in culture; assay type: cell-based
# Further: test concentration or dose not given here.
Compound,RHIZSO in vitro Growth Inhibition [1],USTIMA in vitro Growth Inhibition [2]
O=C(NCC1CCCCC1)c1ncccc1O [Compound 202],− (key: +: at least 80% growth inhibition; −: less than 80% growth inhibition),− (key: +: at least 80% growth inhibition; −: less than 80% growth inhibition)
COc1ccnc(C(=O)NC2C3CSC2CN(Cc2ccccc2)C3)c1O (centres unmarked) [Compound 325],− (key: +: at least 80% growth inhibition; −: less than 80% growth inhibition),− (key: +: at least 80% growth inhibition; −: less than 80% growth inhibition)
COc1cc(NC(=O)c2ncccc2O)cc(OC)c1 [Compound 216],− (key: +: at least 80% growth inhibition; −: less than 80% growth inhibition),− (key: +: at least 80% growth inhibition; −: less than 80% growth inhibition)
O=C(Nc1ccc(Oc2ccc(C(F)(F)F)cc2)cc1)c1ncccc1O [Compound 217],− (key: +: at least 80% growth inhibition; −: less than 80% growth inhibition),− (key: +: at least 80% growth inhibition; −: less than 80% growth inhibition)
COc1ccnc(C(=O)NC2CC(C)(C)CC(C)(C)C2)c1O [Compound 250],− (key: +: at least 80% growth inhibition; −: less than 80% growth inhibition),− (key: +: at least 80% growth inhibition; −: less than 80% growth inhibition)
COc1ccnc(C(=O)NC2O[C@H](CO)[C@H]3OC(C)(C)O[C@@H]23)c1O (some centres unmarked) [Compound 329],− (key: +: at least 80% growth inhibition; −: less than 80% growth inhibition),− (key: +: at least 80% growth inhibition; −: less than 80% growth inhibition)
COc1ccnc(C(=O)N[C@@H]2CCCC[C@H]2SC)c1O [Compound 273],− (key: +: at least 80% growth inhibition; −: less than 80% growth inhibition),− (key: +: at least 80% growth inhibition; −: less than 80% growth inhibition)
COc1ccnc(C(=O)NC2COC3(CC(C)(C)CC(C)(C)C3)OC2)c1O [Compound 315],− (key: +: at least 80% growth inhibition; −: less than 80% growth inhibition),− (key: +: at least 80% growth inhibition; −: less than 80% growth inhibition)
COc1ccnc(C(=O)NC2CC(C)(C)C=CC(C)C2C)c1O (centres unmarked) [Compound 279],− (key: +: at least 80% growth inhibition; −: less than 80% growth inhibition),− (key: +: at least 80% growth inhibition; −: less than 80% growth inhibition)
COc1ccnc(C(=O)NC2CCc3ccccc3C2=O)c1O (centres unmarked) [Compound 285],+ (key: +: at least 80% growth inhibition; −: less than 80% growth inhibition),− (key: +: at least 80% growth inhibition; −: less than 80% growth inhibition)
"COc1ccnc(C(=O)N[C@H]2CC(C)(C)[C@H](O)C(C)(C)C2)c1O [Compound 264, trans-4-Hydroxy-3,3,5,5-Tetramethylpicolinamide]",− (key: +: at least 80% growth inhibition; −: less than 80% growth inhibition),− (key: +: at least 80% growth inhibition; −: less than 80% growth inhibition)
CC(NC(=O)c1ncccc1O)c1ccc(Cl)cc1 (centres unmarked) [Compound 230],− (key: +: at least 80% growth inhibition; −: less than 80% growth inhibition),− (key: +: at least 80% growth inhibition; −: less than 80% growth inhibition)
COc1ccnc(C(=O)NC2CC3CCC2C3)c1O (centres unmarked) [Compound 287],+ (key: +: at least 80% growth inhibition; −: less than 80% growth inhibition),− (key: +: at least 80% growth inhibition; −: less than 80% growth inhibition)
COc1ccnc(C(=O)NC/C=C(\C)CCC=C(C)C)c1O [Compound 242],+ (key: +: at least 80% growth inhibition; −: less than 80% growth inhibition),+ (key: +: at least 80% growth inhibition; −: less than 80% growth inhibition)
COc1ccnc(C(=O)N[C@@H]2OC[C@@H](OC(C)=O)[C@H](OC(C)=O)[C@H]2OC(C)=O)c1O [Compound 330],− (key: +: at least 80% growth inhibition; −: less than 80% growth inhibition),− (key: +: at least 80% growth inhibition; −: less than 80% growth inhibition)
COc1ccnc(C(=O)NC2CC3OC2C(C)C(OC(=O)C(C)C)C3C)c1O (centres unmarked) [Compound 320],− (key: +: at least 80% growth inhibition; −: less than 80% growth inhibition),− (key: +: at least 80% growth inhibition; −: less than 80% growth inhibition)
COc1ccnc(C(=O)NCC(C)(C)Sc2ncc(C(F)(F)F)cc2Cl)c1O [Compound 244],− (key: +: at least 80% growth inhibition; −: less than 80% growth inhibition),− (key: +: at least 80% growth inhibition; −: less than 80% growth inhibition)

Compound,RHIZSO in vitro Growth Inhibition [1],USTIMA in vitro Growth Inhibition [2]
COc1ccnc(C(=O)N[C@H]2[C@@H](OC(C)=O)O[C@H](COC(C)=O)[C@@H](OC(C)=O)[C@@H]2OC(C)=O)c1O [Compound 335],− (key: +: at least 80% growth inhibition; −: less than 80% growth inhibition),− (key: +: at least 80% growth inhibition; −: less than 80% growth inhibition)
"O=C(NCCc1ccc(Cl)cc1)c1ncccc1O [Compound 233, N-(2-(4-Chlorophenyl)Ethyl)-3-Hydroxypyridine-2-Carboxamide]",− (key: +: at least 80% growth inhibition; −: less than 80% growth inhibition),+ (key: +: at least 80% growth inhibition; −: less than 80% growth inhibition)
COc1ccnc(C(=O)N[C@@H]2CC3CC2C[C@@H]3COCc2cccc(C(F)(F)F)c2)c1O (some centres unmarked) [Compound 297],+ (key: +: at least 80% growth inhibition; −: less than 80% growth inhibition),− (key: +: at least 80% growth inhibition; −: less than 80% growth inhibition)
COc1ccnc(C(=O)NC2CCCC2=O)c1O (centres unmarked) [Compound 249],− (key: +: at least 80% growth inhibition; −: less than 80% growth inhibition),− (key: +: at least 80% growth inhibition; −: less than 80% growth inhibition)
CCCCC1(C)CC(NC(=O)c2nccc(OC)c2O)CC(C)(C)C1 (centres unmarked) [Compound 253],− (key: +: at least 80% growth inhibition; −: less than 80% growth inhibition),− (key: +: at least 80% growth inhibition; −: less than 80% growth inhibition)
O=C(NC1CCCCCCC1)c1ncccc1O [Compound 203],+ (key: +: at least 80% growth inhibition; −: less than 80% growth inhibition),− (key: +: at least 80% growth inhibition; −: less than 80% growth inhibition)
COc1cccc(CNC(=O)c2ncccc2O)c1 [Compound 225],− (key: +: at least 80% growth inhibition; −: less than 80% growth inhibition),− (key: +: at least 80% growth inhibition; −: less than 80% growth inhibition)
CCCCC1(C)CCCC(NC(=O)c2nccc(OC)c2O)C1 (centres unmarked) [Compound 254],− (key: +: at least 80% growth inhibition; −: less than 80% growth inhibition),− (key: +: at least 80% growth inhibition; −: less than 80% growth inhibition)
COc1ccnc(C(=O)NC2C[C@H](C)O[C@](C)(Cc3ccccc3)C2)c1O (some centres unmarked) [Compound 313],− (key: +: at least 80% growth inhibition; −: less than 80% growth inhibition),− (key: +: at least 80% growth inhibition; −: less than 80% growth inhibition)
COC(=O)C(CO)NC(=O)c1nccc(OC)c1O (centres unmarked) [Compound 340],− (key: +: at least 80% growth inhibition; −: less than 80% growth inhibition),− (key: +: at least 80% growth inhibition; −: less than 80% growth inhibition)
COc1ccnc(C(=O)NC2C[C@H](C)C[C@H](c3ccccn3)C2)c1O (some centres unmarked) [Compound 259],− (key: +: at least 80% growth inhibition; −: less than 80% growth inhibition),− (key: +: at least 80% growth inhibition; −: less than 80% growth inhibition)
COc1ccnc(C(=O)N[C@@H]2CC3CC2C2C(=O)N(CC(C)C)C(=O)C32)c1O (some centres unmarked) [Compound 303],− (key: +: at least 80% growth inhibition; −: less than 80% growth inhibition),− (key: +: at least 80% growth inhibition; −: less than 80% growth inhibition)
CC(=O)OC1CCC(NC(=O)c2ncccc2O)CC1 (centres unmarked) [Compound 209],− (key: +: at least 80% growth inhibition; −: less than 80% growth inhibition),− (key: +: at least 80% growth inhibition; −: less than 80% growth inhibition)
COc1ccc(CNC(=O)c2ncccc2O)cc1 [Compound 226],− (key: +: at least 80% growth inhibition; −: less than 80% growth inhibition),− (key: +: at least 80% growth inhibition; −: less than 80% growth inhibition)
COc1ccnc(C(=O)N[C@@H]2CC3CC2[C@@H](C(=O)OCCc2ccccc2)[C@H]3C(=O)OCC(C)C)c1O (some centres unmarked) [Compound 301],+ (key: +: at least 80% growth inhibition; −: less than 80% growth inhibition),− (key: +: at least 80% growth inhibition; −: less than 80% growth inhibition)
COc1ccnc(C(=O)NC2CC(C)(C)C(OC(=O)CC(C)C)C(C)(C)C2)c1O (centres unmarked) [Compound 267],− (key: +: at least 80% growth inhibition; −: less than 80% growth inhibition),+ (key: +: at least 80% growth inhibition; −: less than 80% growth inhibition)
COc1ccnc(C(=O)NC2c3ccccc3CC2(C)C)c1O (centres unmarked) [Compound 284],− (key: +: at least 80% growth inhibition; −: less than 80% growth inhibition),− (key: +: at least 80% growth inhibition; −: less than 80% growth inhibition)
